According to US20200268720A1, “METHODS OF USE OF A CLASS IIA HDAC INHIBITOR” (GlaxoSmithKline LLC, priority 2016, published 2020):
Entries after “also recorded” stand apart in the source; their conditions may differ.

Legend:
[1] = tested on: CD11b+ bone marrow derived CFSE-labeled monocytes; assay: Monocyte tracking experiment; format: in vivo, mouse; settings: TMP195 treatment of recipient mice vs DMSO
Experimental: Monocyte tracking was adapted and modified from Qian et al.^35 Bone marrow cells were isolated from approximately 80 day old wild-type FVB/N virgin females. CD11b+ cells were isolated with CD11b MicroBeads (Miltenyi Biotec 130-049-601) using LS magnetic separation columns (Miltenyi Biotec 130-042-401) per manufacturer's instruction. CD11b^+ cells were incubated with 10 μM of CFSE (ThermoFisher C34554) for 15 minutes at 37° C. […] Mice were treated for an additional 5 days and tumors were harvested. The percent of CD11b^+ CFSE^+ double positive cells was assessed by flow cytometry.

tumor vasculature = assay: Tumor vasculature (CD34 IHC, heavy dextran leaky vasculature experiment); format: in vivo, mouse
Experimental: Tumor bearing mice that had been treated for 5 days with vehicle or TMP195 were injected with a heavy molecular weight (250 kDa; Sigma-Aldrich FD250S) dextran labeled with FITC36. After 10 minutes, mice were sacrificed. […] Tumors were removed and placed in a 4% PBS/Paraformaldehyde solution overnight, then embedded in a 20% sucrose solution overnight. Tumors were embedded in an optimum cutting temperature (OCT) solution and stored at −80° C. prior to sectioning and staining. The extent of the heavy dextran that permeated through the vasculature was visualized by immunofluorescence.

MMTV-PyMT tumors [2] = assay: Tumor cell proliferation and apoptosis (Ki67, cleaved Caspase 3 IHC, immunoblot); format: in vivo, mouse; settings: 5 days of TMP195
Experimental: Tumors were manually dissociated using a blade before being lysed in complete RIPA lysis buffer for 2 hours at 4° C. Complete RIPA is a combination of RIPA lysis buffer, a protease inhibitor, and Phenylmethylsulfonyl fluoride (PMSF). After incubation in RIPA, the lysates were centrifuged at 10,000 rcf for 10 minutes and the supernatant was collected for analysis. Protein concentration was measured using a Bicinchoninic acid (BCA) assay as per manufacturer's instructions. Equal protein concentrations were mixed into NuPAGE LDS sample buffer, beta mercaptoethanol (BME), and complete RIPA buffer before being heated for 10 mins at 90° C. to denature the protein. The gels were run on 15 wells 4-12% Bis-Tris Protein gels for 2 hours at 110 volts before being transferred onto a PVDF membrane. The blots were blocked in a 5% milk and PBST solution, and placed in primary antibody overnight. Blots were then incubated in secondary antibody for 1 hour before being developed with supersignal west PICO chemiluminescence substrate and FEMTO supersignal maximal sensitivity substrate. A Luminescent Image Analyzer LAS-4000 was used to develop blots. Primary antibodies purchased from Cell Signaling Technology were used: cleaved caspase 3 (D175), PARP (9542S) and Actin. Antibodies were diluted to a 1:1000 solution in 1% BSA, and sodium azide diluted to 1:500. […]

MMTV-PyMT tumors [3] = assay: Single agent efficacy on tumor burden in autochthonous MMTV-PyMT mice; format: in vivo, mouse
[4] = tested on: metastatic lesions in the lung; assay: Pulmonary metastasis analysis; format: in vivo, mouse
Experimental: Lungs were removed from animals as described above. […] The number of metastatic foci are determined on sections taken every […] throughout the whole lung^3,33 and quantitation was performed blinded by an animal pathologist.

[5] = tested on: MMTV-PyMT tumor transplants; assay: Orthotopic transplant of MMTV-PyMT tumor pieces into wild-type FVBN or athymic nude Foxn1nu mice; format: in vivo, mouse
Experimental: Two transplant experiments were performed where tumors were extracted from MMTV-PyMT mice and 50-100 mm^3 pieces were inserted into the 4th mammary fat pad of either wild-type FVBN mice or athymic nude Foxn1nu mice. Five days after implant mice were randomly placed into treatment groups and treated as indicated.

MMTV-PyMT tumors [6] = assay: Combination with chemotherapy (Carboplatin, Paclitaxel) in MMTV-PyMT mice; format: in vivo, mouse
MMTV-PyMT tumors [7] = assay: Combination with PD-1 checkpoint blockade in MMTV-PyMT mice; format: in vivo, mouse; settings: TMP195 50 mg/kg IP daily plus 250 μg anti-PD-1
MMTV-PyMT tumors [8] = tested on: MMTV-PyMT tumors
Experimental: For all transgenic mouse experiments virgin female FVB/N transgenic mice carrying the polyoma middle T (PyMT) transgene under the control of the mammary tumor virus (MMTV) promoter were used. All mice were maintained within the Dana-Farber Cancer Center (DCFI) animal facility and all experiments involving animals were conducted in accordance with the GSK Policy on the Care, Welfare and Treatment of Laboratory Animals and were reviewed and approved by the DFCI Institutional Animal Care and Use Committee approved. MMTV-PyMT transgenic mice were obtained from The Jackson Laboratory (002374). Mice that were approximately 80 days old were enrolled into the study when their tumor burden was between 300-600 mm^3, unless otherwise noted. Although female mice have 10 mammary fat pads, tumors from mammary fat pad positions 5 and 10 were excluded from all experiments and analysis. Caliper measurements were used to calculate the tumor volume from each mammary tumor using [(Length×Width^2)/2]. The sum of the volume from each tumor on a mouse was combined to generate “total tumor burden”. At the indicated time points animals were euthanized in a CO2 chamber before performing a cardiac perfusion with normal saline. Lungs and tumors were then removed for analysis.
Tumors were extracted and fixed in 10% formalin overnight. Tumors were embedded in paraffin and sectioned at the Rodent Pathology Core at Harvard Medical School. Preceding immunohistochemical staining, tumor sections were exposed to two washes with Histo-Clear II (National Diagnostics, cat. #HS-202), two washes with 100% ethanol, and subsequent hydration with washes of 90%, 80%, 70%, and 50% ethanol. Antigen unmasking was achieved by heating sections in 10 mM sodium citrate buffer (pH 6.0). After cooling, sections were washed in dH20, incubated in 3% Hydrogen peroxide for 10 minutes at room temperature, washed in dH20 again, and then washed in 1×PBS. Antigen blocking was carried out by incubating sections in PBS buffer containing 0.5% Tween, 1% BSA plus 5% serum for 1 hour at room temperature. Sections were then stained in block buffer containing primary antibody (anti-mouse F4/80, clone BM8, BioLegend cat. #123101, 1:50; anti-mouse CD11b, clone EPR1344, ABCAM® cat. #ab133357, 1:50; anti-mouse cleaved caspase-3 (Asp175), Cell Signaling Technology cat. #9661S, 1:300; anti-mouse CD34, clone MEC14.7, BioLegend cat. #119301, 1:100; anti-mouse Ki-67, clone D3B5, BioLegend cat. #12202S, 1:400; CD40 Abcam (ab13545) 1:200); 1:200 Mac-2 (BioLegend cat. #125403, clone M3/38) overnight in a wet chamber at 4° C. in the dark. The following day, sections were washed three times in 1×PBS and stained with secondary biotinylated antibody in PBS block buffer for 1 hour at room temperature. Sections were washed three times with 1×PBS and Elite Vectastain ABC Kit (Vector Laboratories, PK-6100) was applied for 30 minutes per manufacturer's instructions at room temperature in the dark. Sections were washed with 1×PBS, developed with DAB reagent (Peroxidase Substrate Kit, Vector Laboratories, cat. #5K4100), and counterstained with hematoxylin. Sections were then exposed to two washes with dH20, one wash with 1×PBS, and subsequent washes of increasing ethanol concentration for dehydration followed by incubation in Histo-Clear II. Slides were mounted with VectaMount Permanent Mounting Medium (Vector Laboratories, H-5000) and No. 1 glass coverslips (Denville Scientific, cat. #M1100-02) and allowed to cure for 24 hours. Sections were viewed with an Olympus BX43 Trinocular Microscope. For all IHC quantitation ten randomly selected fields from at least 4 different tumors in each treatment group were used to quantitate the percent of tissue positive for each marker using ImageJ software^32. Images were converted to a greyscale red-green-blue (RGB) stack. Positive stain in the “blue” greyscale image was quantified at the appropriate threshold as % total image area positive for stain.

[9] = tested on: human monocytes, T or B cells; settings: cited from earlier work
[10] = TMP195 50 mg/kg IP daily plus PTX 10 mg/kg IV
[11] = 50 mg/kg TMP195 IP daily, 5 days vs DMSO

Structure (SMILES): CC(C)(CNC(=O)c1cccc(-c2noc(C(F)(F)F)n2)c1)c1coc(-c2ccccc2)n1 [TMP195, N-(2-methyl-2-(2-phenyloxazol-4-yl)propyl)-3-(5-(trifluoromethyl)-1,2,4-oxadiazol-3-yl)benzamide]
- proportion of IV injected CD11bhiCFSE+ monocytes recruited to tumors [1]: significant increase; also recorded: significantly enhanced
- tumor vasculature organization (CD34+ vessel structure) (tumor vasculature; 5 days of TMP195 vs DMSO): more organized
- integrity of the tumor vasculature (retention of IV heavy dextran) (tumor vasculature; 5 days of TMP195 vs vehicle): significantly improved
- cell death in the tumor (cleaved Caspase 3, PARP cleavage) (MMTV-PyMT tumors [2]): increase in cell death
- proliferating tumor cells (Ki67) (MMTV-PyMT tumors [2]): significant decrease
- rate of tumor growth (MMTV-PyMT tumors [3]; total tumor burden 150-800 mm^3 at start, 13 days, 50 mg/kg TMP195 IP daily vs DMSO): significantly reduced
- tumor burden, single agent (MMTV-PyMT tumors [3]; total tumor burden 200-600 mm^3 at start, 50 mg/kg TMP195 IP daily vs vehicle): significant reduction
- metastatic lesions in the lung ([4]; initial tumor burden <400 mm^3, 24 days of treatment): significant decrease
- metastatic pulmonary lesions ([4]; tumor burden 200-600 mm^3 at start, 14 days of treatment): decrease
- tumor burden in wild-type FVBN recipients ([5]; treated daily for 16 days, 50 mg/kg TMP195 vs DMSO): tumor burden was reduced
- transplant growth in T cell deficient athymic nude (Foxn1nu) recipient mice ([5]; treated for 20 days): failed to inhibit transplant growth
- tumor burden, combination with Carboplatin (MMTV-PyMT tumors [6]; TMP195 50 mg/kg IP daily plus Carboplatin 50 mg/kg IV every 5 days): significant reduction in tumor burden compared to either monotherapy
- durability of efficacy, combination of TMP195 and PTX (MMTV-PyMT tumors [6]; [10]): at least 29 days
- durability, combination of TMP195 plus PTX (figure legend) (MMTV-PyMT tumors [6]; [10]): durable for at least one month
- tumor burden, combination with Paclitaxel (MMTV-PyMT tumors [6]; TMP195 50 mg/kg IP daily plus Paclitaxel 10 mg/kg IV every 5 days): significant reduction in tumor burden compared to either monotherapy
- tumor burden, TMP195 added to the anti-PD-1 regimen (MMTV-PyMT tumors [7]): significantly greater reduction in tumor burden than TMP195 alone
- proportion of myeloid (CD11b+) and mature macrophages (Mac-2+, CD115+, F480+) in tumors (MMTV-PyMT tumors [8]; [11]): increased proportion
- proportion of other tumor infiltrating immune cells examined (MMTV-PyMT tumors [8]; [11]): without affecting
- MHCII+CD11bhi (MTM) cell population in tumors (MMTV-PyMT tumors [8]; 5 days of TMP195 treatment): increase
- proportion of pro-tumor TAMs (MHCII+CD11blo) (MMTV-PyMT tumors [8]; 5 days of TMP195 treatment): decrease; also recorded: significant reduction
- cytotoxic T lymphocytes in tumors (Granzyme B+ of CD45+CD3+CD8+ cells) (MMTV-PyMT tumors [8]; 5 days of TMP195 vs vehicle): significantly increases; also recorded: increase
- proportion of CD8+ T cells in the tumor (MMTV-PyMT tumors [8]; TMP195 treatment): does not change
- gene expression of monocytes and lymphocytes ([9]; previous report): altered monocyte gene expression without affecting that of lymphocytes
- direct cytotoxicity to human monocytes, T or B cells ([9]; previously reported): not directly cytotoxic
